Results on two compounds are retold here after article PMC4468202, “Improved Visualization and Specific Binding for Metabotropic Glutamate Receptor Subtype 1 (mGluR1) Using [^11C]ITMM with Ultra-High Specific Activity in Small-Animal PET” (PLoS ONE, 2015).

The structures appear in SMILES notation.

The subject of experiment [1] is translocater protein (TSPO). On the set-up: method as in PMID 20705143. As to conditions: ipsilateral side of an ischemic rat brain; cited from earlier work.
Another experiment deals with mGluR1 (Rattus norvegicus, UniProt P23385). Nature of the experiment: In vitro binding assay with [^18F]FITM using cerebellum homogenate. Further details: from tissue; host or cells: cerebellum homogenate. To be noted: previous unpublished data, S4 Fig.
Chain of mGluR1 (P23385 19-1199): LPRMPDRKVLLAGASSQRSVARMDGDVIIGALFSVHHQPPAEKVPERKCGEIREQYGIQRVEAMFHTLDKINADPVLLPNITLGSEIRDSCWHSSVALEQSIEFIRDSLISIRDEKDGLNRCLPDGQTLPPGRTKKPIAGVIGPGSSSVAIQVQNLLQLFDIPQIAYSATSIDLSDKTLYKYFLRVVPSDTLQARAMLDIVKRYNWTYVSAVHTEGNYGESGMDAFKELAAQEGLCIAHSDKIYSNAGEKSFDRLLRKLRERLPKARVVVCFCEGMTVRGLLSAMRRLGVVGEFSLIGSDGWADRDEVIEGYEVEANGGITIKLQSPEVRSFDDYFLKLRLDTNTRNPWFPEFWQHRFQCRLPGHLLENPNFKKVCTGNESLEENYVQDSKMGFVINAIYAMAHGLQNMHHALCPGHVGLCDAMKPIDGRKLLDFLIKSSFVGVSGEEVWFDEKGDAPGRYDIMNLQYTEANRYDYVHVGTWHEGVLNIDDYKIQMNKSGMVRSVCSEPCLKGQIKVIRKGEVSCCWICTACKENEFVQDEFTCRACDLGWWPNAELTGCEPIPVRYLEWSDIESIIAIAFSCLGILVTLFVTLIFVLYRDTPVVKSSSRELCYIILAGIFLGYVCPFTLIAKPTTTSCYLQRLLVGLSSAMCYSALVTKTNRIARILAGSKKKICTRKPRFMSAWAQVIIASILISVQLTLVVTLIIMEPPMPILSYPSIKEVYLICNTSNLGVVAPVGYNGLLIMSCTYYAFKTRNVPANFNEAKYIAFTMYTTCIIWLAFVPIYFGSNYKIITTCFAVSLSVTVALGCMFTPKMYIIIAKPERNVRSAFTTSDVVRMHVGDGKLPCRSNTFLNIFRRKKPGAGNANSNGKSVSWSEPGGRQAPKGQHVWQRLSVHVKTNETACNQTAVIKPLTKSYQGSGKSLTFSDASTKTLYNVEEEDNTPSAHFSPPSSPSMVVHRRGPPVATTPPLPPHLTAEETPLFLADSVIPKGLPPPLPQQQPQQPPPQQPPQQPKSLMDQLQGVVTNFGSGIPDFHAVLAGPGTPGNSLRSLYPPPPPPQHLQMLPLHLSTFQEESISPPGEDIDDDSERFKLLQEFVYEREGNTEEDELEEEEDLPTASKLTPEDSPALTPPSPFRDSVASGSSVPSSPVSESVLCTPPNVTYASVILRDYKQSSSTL

As to `Cn1c(=O)n(CC(=O)N([11CH3])Cc2ccccc2)c2nc(-c3ccccc3)ncc21` [[^11C]DAC], the “binding potential, ultra-high SA vs conventional SA” value in experiment [1] is listed as “roughly two times higher”.

For the compound `CC(C)Nc1cc(-c2csc(N(C)C(=O)c3ccc([18F])cc3)n2)ncn1` [[^18F]FITM, 4-[18F]fluoro-N-[4-[6-(isopropylamino)pyrimidin-4-yl]-1,3-thiazol-2-yl]-N-methylbenzamide], on mGluR1, the binding sites result is “two binding sites of [^18F]FITM possessing high and low affinities”.
